Experiments:
Format in all cases: in vivo
Details in all cases: on tomatoes, wheat and vine crops
[1] = test system: Late blight (Phytophthora infestans)
[2] = test system: Powdery mildew (Erisyphe araminis); experiment: fungicidal effectiveness against Powdery mildew
[3] = test system: Brown rust (Puccinia recondita); experiment: fungicidal effectiveness against Brown rust
[4] = test system: Septoria leaf spot (Septoria tritici); experiment: fungicidal effectiveness against Septoria leaf spot

CO/C=C(/C(=O)OC(c1ccccc1)(c1cncnc1)c1ccc(Cl)cc1Cl)c1ccccc1Oc1cc(Oc2ccccc2C#N)ncn1 (racemic) [Example 1, (RS)-2,4-dichloro-α-(pyrimidin-5-yl)benzhydryl (E)-2-{2-[6-(2-cyanophenoxy)pyrimidin-4-yloxy]phenyl}-3-methoxyacrylate]
effective: effectiveness against fungal pathogen Late blight (Phytophthora infestans) [1] | effectiveness against fungal pathogen Powdery mildew (Erisyphe araminis) [2] | effectiveness against fungal pathogen Brown rust (Puccinia recondita) [3] | effectiveness against fungal pathogen Septoria leaf spot (Septoria tritici) [4]

CO/N=C(/C(=O)OC(Cn1cncn1)(c1ccc(Cl)cc1)C(C)C1CC1)c1ccccc1COc1ccccc1C (racemic) [Example 2, (2RS,3RS;2RS,3SR)-2-(4-chlorophenyl)-3-cyclopropyl-1-(1H-1,2,4-triazol-1-yl)butan-2-yl (E)-methoxyimino[α-(o-tolyloxy)-o-tolyl]acetate]
effective: effectiveness against fungal pathogen Late blight (Phytophthora infestans) [1] | effectiveness against fungal pathogen Powdery mildew (Erisyphe araminis) [2] | effectiveness against fungal pathogen Brown rust (Puccinia recondita) [3] | effectiveness against fungal pathogen Septoria leaf spot (Septoria tritici) [4]

CO/N=C(/C(=O)OC(CCc1ccc(Cl)cc1)(Cn1cncn1)C(C)(C)C)c1ccccc1CO/N=C(\C)c1cccc(C(F)(F)F)c1 (racemic) [Example 3, (RS)-1-p-chlorophenyl-4,4-dimethyl-3-(1H-1,2,4-triazol-1-ylmethyl)pentan-3-yl (E)-methoxyimino-{(E)-α-[1-(α,α,α-trifluoro-m-tolyl)ethylideneaminooxy]-o-tolyl}acetate]
effective: effectiveness against fungal pathogen Late blight (Phytophthora infestans) [1] | effectiveness against fungal pathogen Powdery mildew (Erisyphe araminis) [2] | effectiveness against fungal pathogen Brown rust (Puccinia recondita) [3] | effectiveness against fungal pathogen Septoria leaf spot (Septoria tritici) [4]
